From PMC10254530, “Design and Synthesis of Brefeldin A-Isothiocyanate Derivatives with Selectivity and Their Potential for Cervical Cancer Therapy” (Molecules, 2023)
Counter-ions that a name gives are not always drawn.

Experiments:
[1] = test system: human T lymphoblastoid cell line Jurkat; parameters: method as in PMID 22200402; settings: 0.5 μM; cited from earlier work
U87 cells = test system: U87 cells; parameters: method as in PMID 35557894; settings: glioblastoma multiforme U87 cells in vitro; read-out: IC50, cytotoxic activity against U87 cells; cited from earlier work
HeLa cells [2] = assay: Mitochondrial membrane potential analysis, JC-1 staining; assay type: cell-based, human; settings: 48 h; for JC-1 quadrant Q1-LL / JC-1 quadrant Q1-UL: control 0.00%; for JC-1 green fluorescent cells (decreased mitochondrial membrane potential), quadrant Q1-LR: control 4.07%; for JC-1 quadrant Q1-UR: control 95.93%
Procedure: Mitochondrial membrane potential was detected by the JC-1 staining method. According to the manual of JC-1 Apoptosis Detection Kit KGA601, HeLa cells in 6-well plates were collected by 0.25% trypsin without EDTA (in PBS) digestion after 48 h administration. The Incubation Buffer was prepared according to the instructions, mixing and preheating to 37 °C. 500 μL 1 × Incubation Buffer was mixed with 1 μL JC-1 (working concentration 10 μg/mL) to suspend HeLa cells and then the cells were incubated for 20 min. Cells were collected by centrifugation at room temperature, washed twice with 1 × Incubation Buffer and then detected by BD FACSVerse flow cytometer.

HeLa cells [3] = assay: Annexin V-FITC/PI apoptosis analysis, flow cytometry; assay type: cell-based, human; settings: 48 h, control 3.21%
Procedure: According to the manual of Annexin V-FITC/PI Apoptosis Detection Kit KGA105, HeLa cells in 6-well plates were collected by 0.25% trypsin without EDTA (in PBS) digestion after 48 h administration by the above method. After washing with PBS 3 times, 500 μL Binding Buffer was added to suspend HeLa cells. Then Annexin V-FITC and PI were added successively in dark for 15 min, and HeLa cell apoptosis was detected by BD FACSVerse flow cytometer.

HepG2 cells = assay: CCK-8 antiproliferative assay, HepG2; assay type: cell-based; settings: Homo sapiens, HepG2; CCK-8, 48 h, mean ± SD of three experiments; read-out: IC50 HepG2
Procedure: (§1) All cells were cultured in Dulbecco’s Modified Eagle’s Medium (DMEM) (Burlington, MA, USA) or Roswell Park Memorial Institute (RPMI)-1640 medium containing 10% fetal bovine serum and 1% penicillin/streptomycin in an incubator at 37 °C and 5% CO2. […] Cell suspension with a concentration of 8 × 10^4 cells/mL was prepared after cell counting. 100 μL cell suspension was added to each well of the 96-well plate and then placed in an incubator overnight. Most of the derivatives were configured into 80 mM, 20 mM or 4 mM stock solution in DMSO, and the stock solution concentration of BFA and paclitaxel was 0.4 mM. […] The medium in each well was discarded, and 100 μL of gradient diluted derivative solution was added (the control group was added with serum-free medium).

HeLa cells [4] = assay: CCK-8 antiproliferative assay, HeLa; assay type: cell-based, human; settings: for IC50: Homo sapiens, HeLa, CCK-8, 48 h, mean ± SD of three experiments, read-out: IC50 HeLa; for SIHeLa, selectivity index between L-02 and HeLa: SI = IC50(L-02)/IC50(HeLa)
Procedure: as §1

HeLa cells [5] = assay: Hoechst 33258 staining assay; assay type: cell-based, human; settings: HeLa, 0.46, 0.92 and 1.84 µM, 48 h
Procedure: HeLa cells in 6-well plates were collected after administration. According to the manual of Apoptotic Cell Hoechst 33258 Detection Kit KGA211, HeLa cells were fixed with paraformaldehyde for 30 min. After centrifugation, HeLa cells were soaked in PBS for 5 min and washed 3 times. An appropriate amount of Hoechst 33258 staining solution (working concentration 0.5 μg/mL) was added so that fully covers the HeLa cells and then the cells were left at room temperature for 10 min. After dyeing, HeLa cells were soaked in PBS for 5 min and washed 3 times. Observation under an Olympus (Tokyo, Japan) IX73 fluorescence microscope after sealing with an anti-fluorescence quenching sealing solution (glycerol:PBS = 1:9).

A375 cells = assay: CCK-8 antiproliferative assay, A375; assay type: cell-based; settings: Homo sapiens, A-375; CCK-8, 48 h, mean ± SD of three experiments; read-out: IC50 A375
Procedure: as §1

A549 cells = assay: CCK-8 antiproliferative assay, A549; assay type: cell-based; settings: Homo sapiens, A549; CCK-8, 48 h, mean ± SD of three experiments; read-out: IC50 A549
Procedure: as §1

L-02 cells = assay: CCK-8 cytotoxicity assay, normal liver L-02; assay type: cell-based; settings: Homo sapiens, L02; CCK-8, 48 h, normal liver cells, mean ± SD of three experiments; read-out: IC50 L-02
Procedure: as §1

MDA-MB-231 cells = assay: CCK-8 antiproliferative assay, MDA-MB-231; assay type: cell-based; settings: Homo sapiens, MDA-MB-231; CCK-8, 48 h, mean ± SD of three experiments; read-out: IC50 MDA-MB-231
Procedure: as §1

HeLa cells [6] = assay: Cell cycle analysis, PI staining flow cytometry; assay type: cell-based, human; settings: 48 h; for cells in G1 phase: control 33.42%
Procedure: Cell cycle was detected by PI single staining method. Cell suspension with a concentration of 2 × 10^5 cells/mL was prepared after cell counting. 1 mL cell suspension was added to each well of the 6-well plate and then placed in an incubator overnight. The medium in each well was discarded, and 1 mL of gradient diluted derivative solution 6 (0, 0.46, 0.92 and 1.84 µM) was added (the control group was added with serum-free medium). According to the manual of Cell Cycle Detection Kit KGA511, after 48 h, HeLa cells were collected and fixed with 70% ethanol for 2 h. After centrifugation, 100 μL RNase A (working concentration 20 μg/mL) was added and placed in a 37 °C water bath for 30 min. Then 400 μL PI staining (working concentration 50 μg/mL) was added and mixed, centrifugal tube was placed in the dark at 4 °C for 30 min. Red fluorescence at the excitation wavelength of 488 nm was recorded by flow cytometry.

**Q.** With O=C1c2ccc3c4c(ccc(c24)C(=O)N1CCCN=C=S)C(=O)N(CCCN=C=S)C3=O [derivative A] as the molecule, how does the “effect on apoptosis in Jurkat cells” value [1] read?
**A.** induced apoptosis by activating caspase-8

**Q.** With C[C@@H]1CCC2[C@@H](C)[C@@H](OCCCN=C=S)O[C@@H]3O[C@@]4(C)CCC1[C@@]23OO4 (some centres unmarked) [compound B] as the molecule, how does the IC50 (U87 cells) read?
**A.** 7.41 µM

**Q.** Which results are given for C[C@H]1CCC/C=C/[C@@H]2C[C@H](O)C[C@H]2[C@H](OC(=O)c2ccc(N=C=S)cc2)/C=C/C(=O)O1 [Compound 6, (1R,2E,6S,10E,11aS,13S,14aR)-13-Hydroxy-6-methyl-4-oxo-1,6,7,8,9,11a,12,13,14,14a-decahydro-4H-cyclopenta[f][1]oxacyclotridecin-1-yl 4-isothiocyanatobenzoate]?
**A.** JC-1 quadrant Q1-LL (HeLa cells [2]; 0.46 µM): 0.00%; JC-1 quadrant Q1-UL (HeLa cells [2]; 0.46 µM): 0.00%; JC-1 green fluorescent cells (decreased mitochondrial membrane potential), quadrant Q1-LR (HeLa cells [2]; 0.46 µM): 13.88%; JC-1 quadrant Q1-UR (HeLa cells [2]; 0.46 µM): 86.12%; JC-1 quadrant Q1-LL (HeLa cells [2]; 0.92 µM): 0.00%; JC-1 quadrant Q1-UL (HeLa cells [2]; 0.92 µM): 0.00%; JC-1 green fluorescent cells (decreased mitochondrial membrane potential), quadrant Q1-LR (HeLa cells [2]; 0.92 µM): 24.80%; JC-1 quadrant Q1-UR (HeLa cells [2]; 0.92 µM): 75.20%; JC-1 quadrant Q1-LL (HeLa cells [2]; 1.84 µM): 0.00%; JC-1 quadrant Q1-UL (HeLa cells [2]; 1.84 µM): 0.00%; JC-1 green fluorescent cells (decreased mitochondrial membrane potential), quadrant Q1-LR (HeLa cells [2]; 1.84 µM): 39.69%; JC-1 quadrant Q1-UR (HeLa cells [2]; 1.84 µM): 60.31%; percentage of cells in the early and late stages of apoptosis (HeLa cells [3]; 0.46 µM): 16.04%; percentage of cells in the early and late stages of apoptosis (HeLa cells [3]; 0.92 µM): 26.41%; percentage of cells in the early and late stages of apoptosis (HeLa cells [3]; 1.84 µM): 39.03%; IC50 (HepG2 cells): 20.8 ± 1.22 µM; IC50 (HeLa cells [4]): 1.84 ± 0.08 µM; nuclear morphology, Hoechst33258 staining (HeLa cells [5]): nuclear fragmentation; IC50 (A375 cells): 3.08 ± 0.43 µM; IC50 (A549 cells): 7.18 ± 0.51 µM; IC50 (L-02 cells): > 80 µM; IC50 (MDA-MB-231 cells): 6.83 ± 0.61 µM; cells in G1 phase (HeLa cells [6]; 0.46 µM): 43.39%; cells in G1 phase (HeLa cells [6]; 0.92 µM): 49.55%; cells in G2 phase (HeLa cells [6]; 1.84 µM, control 22.94%): 12.50%; cells in G1 phase (HeLa cells [6]; 1.84 µM): 60.80%; cells in S phase (HeLa cells [6]; 1.84 µM, control 43.64%): 26.70%

**Q.** What does the source list for C[C@H]1CCC/C=C/[C@@H]2C[C@H](OC(=O)/C=C\C(=O)OCCOC(=O)c3ccc(N=C=S)cc3)C[C@H]2[C@H](OC(=O)/C=C\C(=O)OCCOC(=O)c2ccc(N=C=S)cc2)/C=C/C(=O)O1 [Compound 8g, Bis(2-((4-isothiocyanatobenzoyl)oxy)ethyl) O,O’-((1R,2E,6S,10E,11aS,13S,14aR)-6-methyl-4-oxo-1,6,7,8,9,11a,12,13,14,14a-decahydro-4H-cyclopenta[f][1]oxacyclotridecine-1,13-diyl) dimaleate]?
**A.** IC50 (HepG2 cells): > 40 µM; IC50 (HeLa cells [4]): 9.74 ± 0.37 µM; SIHeLa, selectivity index between L-02 and HeLa (HeLa cells [4]): >8.21; IC50 (A375 cells): > 40 µM; IC50 (A549 cells): > 40 µM; IC50 (L-02 cells): > 80 µM; IC50 (MDA-MB-231 cells): > 40 µM

**Q.** For C[C@H]1CCC/C=C/[C@@H]2C[C@H](O)C[C@H]2[C@H](OC(=O)/C=C\C(=O)OCCCCOC(=O)c2ccc(N=C=S)cc2)/C=C/C(=O)O1 [Compound 9h, (1R,2E,6S,10E,11aS,13S,14aR)-13-Hydroxy-6-methyl-4-oxo-1,6,7,8,9,11a,12,13,14,14a-decahydro-4H-cyclopenta[f][1]oxacyclotridecin-1-yl (4-((4-isothiocyanatobenzoyl)oxy)butyl) maleate], which IC50 (HepG2 cells) is on record?
**A.** 13.27 ± 0.1 µM

**Q.** What about the IC50 (HeLa cells [4]) of the same molecule?
**A.** 9.68 ± 0.24 µM

**Q.** What about the “SIHeLa, selectivity index between L-02 and HeLa” value (HeLa cells [4]) of the same molecule?
**A.** 2.87

**Q.** What about the IC50 (A375 cells) of the same molecule?
**A.** 11.2 ± 0.29 µM

**Q.** And the IC50 (A549 cells)?
**A.** 8.54 ± 0.26 µM

**Q.** And the IC50 (L-02 cells)?
**A.** 27.8 ± 1.39 µM

**Q.** And the IC50 (MDA-MB-231 cells)?
**A.** 5.71 ± 0.2 µM

**Q.** Which results are given for C[C@H]1CCC/C=C/[C@@H]2C[C@H](O)C[C@H]2[C@H](OC(=O)CCC(=O)OCCOC(=O)c2ccc(N=C=S)cc2)/C=C/C(=O)O1 [Compound 9a, (1R,2E,6S,10E,11aS,13S,14aR)-13-Hydroxy-6-methyl-4-oxo-1,6,7,8,9,11a,12,13,14,14a-decahydro-4H-cyclopenta[f][1]oxacyclotridecin-1-yl (2-((4-isothiocyanatobenzoyl)oxy)ethyl) succinate]?
**A.** IC50 (HepG2 cells): 5.93 ± 0.03 µM; IC50 (HeLa cells [4]): 2.69 ± 0.3 µM; SIHeLa, selectivity index between L-02 and HeLa (HeLa cells [4]): 5.75; IC50 (A375 cells): 2.07 ± 0.09 µM; IC50 (A549 cells): 8.29 ± 0.1 µM; IC50 (L-02 cells): 15.5 ± 1.22 µM; IC50 (MDA-MB-231 cells): 8.04 ± 0.01 µM
